# Measured values: US20110009435A1, “HETERO BICYCLIC CARBOXAMIDE DERIVATIVES AND THEIR PHARMACEUTICAL USE AND COMPOSITIONS” (Pfizer, Inc., priority 2007, published 2011)
# How the values were obtained:
# Assay type in all cases: biochemical
# [1] = biological target: T1, catalytic domain of human recombinant MMP-3 (Homo sapiens, UniProt P08254); assay: In vitro MMP inhibition assay, MMP-3 catalytic domain (fluorogenic peptide substrate cleavage, Ki); details: human MMP-3, catalytic domain (CD); read-out: hMMP Ki 03/CD
# T1 construct: made in house
# T1 sequence (P08254 100-272 limits assumed): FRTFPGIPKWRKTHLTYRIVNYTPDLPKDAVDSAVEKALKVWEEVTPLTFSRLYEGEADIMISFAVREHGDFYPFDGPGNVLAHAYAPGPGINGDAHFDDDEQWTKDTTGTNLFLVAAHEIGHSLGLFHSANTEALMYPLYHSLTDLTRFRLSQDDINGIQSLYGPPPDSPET
# Protocol: (§1) Matrix Metalloproteinase inhibitor compounds were analyzed in in vitro MMP Inhibition assays to determine their ability to inhibit the MMP cleavage of peptide substrates. Inhibition constants (Ki) were calculated from the assayed compound-MMP interactions.
# (§2) Human recombinant MMP-1, MMP-2, MMP-3, MMP-7, MMP-9, MMP-12, MMP-13, MMP-14 and MMP-15 were used in these assays. The enzymes are prepared following known laboratory procedures. Protocols for the preparation and use of these enzymes are available in the scientific literature. See, e.g., Enzyme Nomenclature (Academic Press, San Diego, Calif., 1992) and the citations therein. See also Frije et al., J. Biol. Chem., 26(24), 16766-73 (1994).
# The catalytic domain MMP-3 cDNA may be used to express the catalytic domain enzyme in E. coli inclusion bodies. Then the enzyme is solubilized in urea, purified on a preparative […] reverse phase HPLC column, and refolded in the presence of zinc acetate and purified for use.
# The fluorogenic, methoxycoumarin-containing polypeptide substrate Mca-Arg-Pro-Lys-Pro-Val-Glu-Nva-Trp-Arg-Lys(Dnp)-NH2 (Bachem catalog number M-2110) was used as the MMP substrate in the MMP inhibition assays for catalytic domain of human recombinant MMP-3 (which refers to the catalytic domain of stromelysin). Here, “MCA” is 7-methoxycoumarin-4-yl acetyl and “Dpa” is 3-(2,4-dinitrophenyl)-L-2,3-di-aminopropionyl group. In the absence of MMP inhibitory activity, the substrate is cleaved at the Gly-Leu peptide bond. The cleavage separates the highly fluorogenic peptide from the 2,4-dinitrophenyl quencher, resulting in an increase of fluorescent intensity.
# For the human MMP-3 assay, dilutions of the inhibitors (or salts thereof) were prepared in 100% DMSO. The stock solutions were diluted in Buffer B (50 mM N-morpholinoethane sulfonate (“MES”), 100 mM NaCl, 10 mM CaCl2, 0.005% polyoxyethylene 23 lauryl ether, pH 6.0)) to obtain solutions with different compound concentrations, i.e., assay solutions with different concentrations of the assayed MMP inhibitory compound in 1% DMSO. The experiment controls contained the same amount of Buffer B/DMSO as the assayed sample, but contained no inhibitor.
# (§3) To determine Ki, the inhibitor samples are incubated at room temperature for 1 hr in the presence of enzyme and then 4 μM of appropriate MMP substrate was added, and samples were analyzed on a Tecan SpectraFlour Plus plate reader. The excitation wavelength is 330 nm, and the emission (fluorescence) wavelength is 420 nm. In the absence of MMP inhibitory activity, the substrate is cleaved at the Gly-Leu bond resulting in an increase of relative fluorescence. Inhibition is observed as a reduced rate of increase in relative fluorescence.
# (§4) The inhibitors are analyzed using a single low enzyme concentration with a single substrate concentration fixed at or below the Km. This protocol is a modification of method by Knight et al., FEBS Lett., 296(3), 263-266 (1992). Apparent inhibitory constants are determined by non-linear regression of reaction velocity as a function of inhibitor and enzyme concentration using Morrison's equation, as described by Kuzmic, Anal. Biochem. 286, 45-50 (2000). Modifications were made in the non-linear regression method to allow a common control reaction rate and effective enzyme concentration to be shared between all dose-response relationships on a given assay plate. Since the substrate concentration was chosen to be at or below the Km, the apparent Ki's from this analysis were reported as Ki's without correction for the influence of substrate.
# Human recombinant MMP-12 = biological target: T2, Human recombinant MMP-12 (Homo sapiens, UniProt P39900); assay: In vitro MMP inhibition assay, MMP-12 catalytic domain (fluorogenic peptide substrate cleavage, Ki); details: human MMP-12, catalytic domain (CD); read-out: hMMP Ki 12/CD
# T2 construct: The catalytic domain of MMP-12 and MMP-15 enzymes were purchased commercially for these assays; purchased
# T2 sequence (P39900 106-263 limits assumed): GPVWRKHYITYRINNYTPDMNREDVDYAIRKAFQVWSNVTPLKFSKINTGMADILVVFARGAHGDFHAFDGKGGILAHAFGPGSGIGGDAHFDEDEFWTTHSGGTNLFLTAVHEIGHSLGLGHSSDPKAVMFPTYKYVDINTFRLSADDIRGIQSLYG
# Protocol: as §1, §2
# (§5) The catalytic domain of MMP-12 and MMP-15 enzymes were purchased commercially for these assays.
# (§6) The fluorogenic, methoxycoumarin-containing polypeptide substrate MCA-ArgProLeuGlyLeuDpaAlaArgGluArgNH2 was used as the MMP substrate in the MMP inhibition assays for human recombinant MMP-1, MMP-2, MMP-7, MMP-9, MMP-12, MMP-13, MMP-14 and MMP-15. Here, “MCA” is 7-methoxycoumarin-4-yl acetyl and “Dpa” is 3-(2,4-dinitrophenyl)-L-2,3-di-aminopropionyl group. In the absence of MMP inhibitory activity, the substrate is cleaved at the Gly-Leu peptide bond. The cleavage separates the highly fluorogenic peptide from the 2,4-dinitrophenyl quencher, resulting in an increase of fluorescent intensity.
# (§7) For the human MMP-1, MMP-2, MMP-7, MMP-9, MMP-12, MMP-13, MMP-14 and MMP-15 assays, dilutions of the inhibitors (or salts thereof) were prepared in 100% dimethyl sulfoxide (DMSO). The stock solutions were diluted in Buffer A (100 mM Tris-HCl, 100 mM NaCl, 10 mM CaCl2, 0.005% polyoxyethylene 23 lauryl ether, pH 7.5) to obtain solutions with different compound concentrations, i.e., assay solutions with different concentrations of the assayed MMP inhibitory compound in 1% DMSO. The experiment controls contained the same amount of Buffer A/DMSO as the assayed sample, but contained no inhibitor.
# as §3, §4
# Human recombinant MMP-13 = biological target: T3, Human recombinant MMP-13 (Homo sapiens, UniProt P45452); assay: In vitro MMP inhibition assay, MMP-13 (fluorogenic peptide substrate cleavage, Ki); details: human MMP-13, full length (FL); read-out: hMMP Ki 13/FL
# T3 construct: made in house; host or cells: baculovirus expression (insect cells)
# Protocol: as §1, §2
# The MMP-13 may be obtained as a proenzyme from a full-length cDNA clone using baculovirus expression, as described by V. A. Luckow, “Insect Cell Expression Technology,” Protein Engineering: Principles and Practice, pp. 183-218 (edited by J. L. Cleland et al., Wiley-Liss, Inc., 1996). The expressed proenzyme was first purified over a heparin agarose column, and then over a chelating zinc chloride column. Further details on baculovirus expression systems may be found in, for example, Luckow et al., J. Virol., 67, 4566-79 (1993). See also O'Reilly et al, Baculovirus Expression Vectors: A Laboratory Manual (W. H. Freeman and Co., New York, N.Y., 1992). See also King et al., The Baculovirus Expression System: A Laboratory Guide (Chapman & Hall, London, England, 1992).
# All full length MMPs were activated using 4-aminophenylmercuric acetate (“APMA”, Sigma Chemical, St. Louis, Mo.) or trypsin. MMP-9 also was activated using human recombinant MMP-3 following standard cloning and purification techniques.
# as §6, §7, §3
# The inhibitors are analyzed using a single low enzyme concentration with a single substrate concentration fixed at or below the Km. This protocol is a modification of method by Knight et al., FEBS Lett., 296(3), 263-266 (1992). Apparent inhibitory constants are determined by non-linear regression of reaction velocity as a function of inhibitor and enzyme concentration using Morrison's equation, as described by Kuzmic, Anal. Biochem. 286, 45-50 (2000). […]
# Human recombinant MMP-15 = biological target: T4, Human recombinant MMP-15 (Homo sapiens, UniProt P51511); assay: In vitro MMP inhibition assay, MMP-15 catalytic domain (fluorogenic peptide substrate cleavage, Ki); details: human MMP-15, catalytic domain (CD); read-out: hMMP Ki 15/CD
# T4 construct: The catalytic domain of MMP-12 and MMP-15 enzymes were purchased commercially for these assays; purchased
# T4 sequence (P51511 132-304 limits assumed): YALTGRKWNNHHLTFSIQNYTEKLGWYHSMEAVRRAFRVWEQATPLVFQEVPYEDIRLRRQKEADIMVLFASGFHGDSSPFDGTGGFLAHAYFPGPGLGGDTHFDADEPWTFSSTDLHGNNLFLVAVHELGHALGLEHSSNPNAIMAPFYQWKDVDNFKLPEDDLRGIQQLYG
# Protocol: as §1, §2, §5, §6, §7, §3, §4
# Human recombinant MMP-14 = biological target: T5, Human recombinant MMP-14 (Homo sapiens, UniProt P50281); assay: In vitro MMP inhibition assay, MMP-14 catalytic domain (fluorogenic peptide substrate cleavage, Ki); details: human MMP-14, catalytic domain (CD); read-out: hMMP Ki 14/CD
# T5 construct: The MMP-14 cDNA may be used to express the catalytic domain enzyme in E. coli inclusion bodies; made in house
# Protocol: as §1, §2
# The MMP-14 cDNA may be used to express the catalytic domain enzyme in E. coli inclusion bodies. Then the enzyme is solubilized in urea, purified on a preparative […] reverse phase HPLC column, and refolded in the presence of zinc acetate and purified for use.
# as §6, §7, §3
# as §4, with “Since the substrate concentration was chosen to be at or below the Km, the apparent Ki's from this analysis were reported as Ki's without correction for the influence of substrate.” left out
SMILES,Ki [1],Ki (Human recombinant MMP-12),Ki (Human recombinant MMP-13),Ki (Human recombinant MMP-15),Ki (Human recombinant MMP-14)
"COc1cccc(CNC(=O)c2nc3scc(COC[C@@H]4CO[C@@H](CO)CO4)c3c(=O)[nH]2)c1 (relative stereo) [Example 7, N-(3-Methoxybenzyl)-5-(((trans-5-(hydroxymethyl)-1,4-dioxan-2-yl)methoxy)methyl)-4-oxo-3,4-dihydrothieno[2,3-d]pyrimidine-2-carboxamide]",1640 nM,> 10 µM,11.4 nM,> 10 µM,> 10 µM
"COc1cc(CNC(=O)c2nc3scc(COC[C@H]4CC[C@H](CO)CC4)c3c(=O)[nH]2)ccc1F [Example 9, N-(4-Fluoro-3-methoxybenzyl)-5-(((trans-4-(hydroxymethyl)cyclohexyl)methoxy)methyl)-4-oxo-3,4-dihydrothieno[2,3-d]pyrimidine-2-carboxamide]",1350 nM,> 10 µM,0.88 nM,> 10 µM,> 10 µM
"COc1cccc(CNC(=O)c2nc3scc(COC[C@H]4CC[C@H](NC(C)=O)CC4)c3c(=O)[nH]2)c1 [Example 17, 5-({[trans-4-(Acetylamino)cyclohexyl]methoxy}methyl)-N-(3-methoxybenzyl)-4-oxo-3,4-dihydrothieno[2,3-d]pyrimidine-2-carboxamide]",656 nM,,1.62 nM,,
"COc1cccc(CNC(=O)c2nc3scc(COC[C@H]4CC[C@H](NC(=O)CO)CC4)c3c(=O)[nH]2)c1 [Example 21, N-(3-Methoxybenzyl)-5-((((trans-1,4)-4-(2-hydroxyacetamido)cyclohexyl)methoxy)methyl)-4-oxo-3,4-dihydrothieno[2,3-d]pyrimidine-2-carboxamide]",672 nM,,1.25 nM,,
"COc1cc(CNC(=O)c2nc3scc(COC[C@H]4CC[C@H](NC(=O)CO)CC4)c3c(=O)[nH]2)ccc1F [Example 23, N-(4-Fluoro-3-methoxybenzyl)-5-((((trans-1,4)-4-(2-hydroxyacetamido)cyclohexyl)methoxy)methyl)-4-oxo-3,4-dihydrothieno[2,3-d]pyrimidine-2-carboxamide]",453 nM,,0.582 nM,,
"COc1cccc(CNC(=O)c2nc3scc(COC[C@H]4CC[C@H](CNS(C)(=O)=O)CC4)c3c(=O)[nH]2)c1 [Example 25, N-(3-methoxybenzyl)-5-[({trans-4-[(methylsulfonyl)aminomethyl]cyclohexyl}methoxy)methyl]-4-oxo-3,4-dihydrothieno[2,3-d]pyrimidine-2-carboxamide]",512 nM,,0.566 nM,,
"COc1cccc(CNC(=O)c2nc3scc(COCCC4CCN(S(C)(=O)=O)CC4)c3c(=O)[nH]2)c1 [Example 27, N-(3-methoxybenzyl)-5-({2-[1-(methylsulfonyl)piperidin-4-yl]ethoxy}methyl)-4-oxo-3,4-dihydrothieno[2,3-d]pyrimidine-2-carboxamide]",779 nM,,1.78 nM,,
"COc1cccc(CNC(=O)c2nc3scc(COCCC4CCN(C(C)=O)CC4)c3c(=O)[nH]2)c1 [Example 28, 5-([2-(1-Acetylpiperidin-4-yl)ethoxy]methyl)-N-(3-methoxybenzyl)-4-oxo-3,4-dihydrothieno[2,3-d]pyrimidine-2-carboxamide]",787 nM,,3.13 nM,,
"COc1cccc(CNC(=O)c2nc3ccc(F)c(OC[C@H]4CC[C@H](CO)CC4)c3c(=O)[nH]2)c1 [Example 29, 6-fluoro-5-{[trans-4-(hydroxymethyl)cyclohexyl]methoxy}-N-(3-methoxybenzyl)-4-oxo-3,4-dihydroquinazoline-2-carboxamide]",1600 nM,,0.374 nM,,
"COc1cccc(CNC(=O)c2nc3ccc(F)c(OCCC4CCNCC4)c3c(=O)[nH]2)c1 [Example 30, 6-fluoro-N-(3-methoxybenzyl)-4-oxo-5-(2-piperidin-4-ylethoxy)-3,4-dihydroquinazoline-2-carboxamide]",9420 nM,,1.91 nM,,
"COc1cccc(CNC(=O)c2nc3ccc(F)c(OCCC4CCN(S(C)(=O)=O)CC4)c3c(=O)[nH]2)c1 [Example 31, 6-fluoro-N-(3-methoxybenzyl)-5-{2-[1-(methylsulfonyl)piperidin-4-yl]ethoxy}-4-oxo-3,4-dihydroquinazoline-2-carboxamide]",1280 nM,,0.085 nM,,
"COc1cccc(CNC(=O)c2nc3ccc(F)c(OCCC4CCN(C(C)=O)CC4)c3c(=O)[nH]2)c1 [Example 32, 5-[2-(1-acetylpiperidin-4-yl)ethoxy]-6-fluoro-N-(3-methoxybenzyl)-4-oxo-3,4-dihydroquinazoline-2-carboxamide]",1950 nM,,0.184 nM,,
"COc1cccc(CNC(=O)c2nc3ccc(F)c(OCCC4CCN(CCO)CC4)c3c(=O)[nH]2)c1 [Example 35, 6-fluoro-5-{2-[1-(2-hydroxyethyl)piperidin-4-yl]ethoxy}-N-(3-methoxybenzyl)-4-oxo-3,4-dihydroquinazoline-2-carboxamide]",5200 nM,,4.15 nM,,
